In brackets after ≈: the same amount, converted by molar mass. Like-named read-outs stand apart in the source and are kept apart here.
Key:
[1] = test system: Staphylococcus aureus hVISA/VISA strains; parameters: key: CG, confluent growth; IC, individual colonies; NG, no growth; details: cited from earlier work
[2] = test system: SAV2095 (SEQ ID NO.:1) expression in S. aureus; assay: SAV2095 homologue mRNA expression by qRT-PCR after growth in subinhibitory vancomycin; type: cell-based, Staphylococcus aureus
Experimental: Overnight cultures of strains were diluted 1/100 in tryptic soy broth containing either 0 (for all strains), 1 (for selected MRSA), or 3 (for selected VISA) mg/L vancomycin and grown to mid-log phase. Cells from 1 mL culture were harvested and treated with RNAProtect (Qiagen). Cells were subsequently treated with lysostaphin for 30 min at 37° C., and total RNA was isolated from each sample and each condition using the RNeasy Kit (Qiagen). Samples were then treated with Turbo DNA-free (Ambion, Austin, Tex.) to remove any contaminating genomic DNA. RNA quantity and quality was assessed using an Agilent Technologies 2100 bioanalyzer and RNA 6000 Nano LabChip kit (Agilent, Mountain View, Calif.). Complementary DNA (cDNA) was generated from 688 ng of total RNA using a random primer hexamer following the protocol for Superscript II (Invitrogen, Carlsbad, Calif.) in a 20 μL volume.
Equal amounts (34 ng) of cDNA were run in triplicate and amplified in a 15 μl reaction containing 7.5 μL of 2× Universal PCR Master Mix (Applied Biosystems, Foster City, Calif.), 10 nM of Z-tailed forward primer, 100 nM of reverse primer, 100 nM of Amplifluor Uniprimer probe (Chemicon, Temecula, Calif.), and 1 μL of DNA target. Moreover, no-template controls were used as recommended. The mixture was incubated at 50° C. for 2 min, at 95° C. for 4 min, and then cycled at 95° C. for 15 sec and at 55° C. for 40 sec 55 times using the Applied Biosystems Prism 7900 Sequence Detector. Amplification efficiencies were validated and normalized to expression of the 16S rRNA gene as a standard, and quantity of target and standard genes were calculated according to a standard curve. Primers were designed using Primer Express 2.0 (Applied Biosystems) and their sequence data are the following: for SAV2095, forward, 5-Ztail-[…]-3, reverse, 5-[…]-3; and for 16S rRNA, forward, 5-Ztail-[…]-3, reverse, 5-GCTTAAGGGTTGCGCTCGT-3. Amplicons were detected using the Amplifluor™ UniPrimerr™ system where forward primers used contained the 5′ Z sequence ACTGAACCTGACCGTACA. As it is appreciated by a person skilled in the art, it is to be understood herein that other primers may be used for amplifying and detecting SAV2095 without departing from the scope of the invention. A person skilled in the art knows how to design primers for any given amplification assay. For example, in a multiplex assay, primers would need to have similar melting temperatures and low complementarity, etc.

[3] = test system: Staphylococcus aureus strains (MRSA, hVISA/VISA); assay: Modified (macromethod) Etest, vancomycin MIC, 2 McFarland inoculum; type: cell-based; details: for MIC: Staphylococcus aureus; for Modified Etest category: 2 McF inoculum; on Modified Etest category: key: S = sensitive; I = intermediate; R = resistant
Experimental: (§1) Vancomycin MICs were determined using standard Etest methods. Briefly, colonies from a fresh overnight plate were resuspended in saline to a turbidity equivalent to 0.5 McFarland units. This suspension was swabbed onto Mueller-Hinton agar plates, allowed to dry, and overlaid with a Vancomycin Etest strip (AB Biodisk). Plates were incubated at 37° C. for 48 h and interpreted. […] For some MRSA strains, the macromethod Etest was also applied, using an inoculum equivalent to 2 McFarland units on Brain-Heart Infusion agar plates.

Japanese strain Mu3 = details: strain Mu3, tests as susceptible; cited from earlier work
[4] = test system: Staphylococcus aureus strains (MRSA, hVISA/VISA, in vitro-selected); assay: CLSI-approved (standard) Etest, vancomycin MIC, 0.5 McFarland inoculum; type: cell-based; details: for MIC: Staphylococcus aureus; on CLSI Etest category: key: S = sensitive; I = intermediate; R = resistant
Experimental: as §1

Compound: CN[C@H](CC(C)C)C(=O)N[C@H]1C(=O)N[C@@H](CC(N)=O)C(=O)N[C@H]2C(=O)N[C@H]3C(=O)N[C@H](C(=O)N[C@H](C(=O)O)c4cc(O)cc(O)c4-c4cc3ccc4O)[C@H](O)c3ccc(c(Cl)c3)Oc3cc2cc(c3O[C@@H]2O[C@H](CO)[C@@H](O)[C@H](O)[C@H]2O[C@H]2C[C@](C)(N)[C@H](O)[C@H](C)O2)Oc2ccc(cc2Cl)[C@H]1O [vancomycin]
- Agar screen growth ([1]; strain 160013 (NRS283), 48 h incubation): IC (48)
- Agar screen growth ([1]; strain BR 5 (NRS56), 24 h incubation): CG (24)
- Agar screen growth ([1]; strain HIP07930 (NRS22), 48 h incubation): IC (48)
- Agar screen growth ([1]; strain HIP09433 (NRS27), 72 h incubation): NG (72)
- Agar screen growth ([1]; strain HIP09662 (NRS28), 72 h incubation): NG (72)
- Agar screen growth ([1]; strain HIP12864 (NRS402), 24 h incubation): CG (24)
- Agar screen growth ([1]; strain LIM 1 (NRS35), 72 h incubation): NG (72)
- Agar screen growth ([1]; strain LIM 3 (NRS37), 72 h incubation): NG (72)
- Agar screen growth ([1]; strain LY-1999 0620-01 (NRS63), 48 h incubation): IC (48)
- Agar screen growth ([1]; strain LY-1999 0620-02 (NRS64), 72 h incubation): NG (72)
- Agar screen growth ([1]; strain Mu3 (NRS2), 72 h incubation): NG (72)
- Agar screen growth ([1]; strain Mu50 (NRS1), 24 h incubation): CG (24)
- Agar screen growth ([1]; strain NRS118, 24 h incubation): CG (24)
- Agar screen growth ([1]; strain SA MER (NRS11), 72 h incubation): NG (72)
- Agar screen growth ([1]; strain SA MER-S20 (NRS14), 24 h incubation): CG (24)
- Effect on SAV2095 expression level ([2]; MRSA strains grown with subinhibitory vancomycin 1 mg/L): does not consistently increase
- Effect on SAV2095 expression level ([2]; MRSA strains grown with subinhibitory vancomycin 1 mg/L, listed as Vn): not in MRSA
- Effect on SAV2095 expression level ([2]; VISA strains grown with subinhibitory vancomycin 3 mg/L, p<0.05): consistently increased further
- Effect on SAV2095 expression level ([2]; VISA strains grown with subinhibitory vancomycin 3 mg/L, p<0.05, listed as Vn): increased expression of SAV2095
- MIC ([3]; read-out: Modified Etest MIC, strain CMRSA-1 (MRSA), 2 McF inoculum): 8 µg/mL (≈ 5.52 µM)
- MIC ([3]; read-out: Modified Etest MIC, strain CMRSA-2 (MRSA), 2 McF inoculum): 3 µg/mL (≈ 2.07 µM)
- MIC ([3]; read-out: Modified Etest MIC, strain CMRSA-3 (MRSA), 2 McF inoculum): 3 µg/mL (≈ 2.07 µM)
- MIC ([3]; read-out: Modified Etest MIC, strain CMRSA-4 (MRSA), 2 McF inoculum): 2 µg/mL (≈ 1.38 µM)
- Modified Etest category ([3]; strain CMRSA-1 (MRSA)): I
- Modified Etest category ([3]; strain CMRSA-2 (MRSA)): S
- Modified Etest category ([3]; strain CMRSA-3 (MRSA)): S
- Modified Etest category ([3]; strain CMRSA-4 (MRSA)): S
- MIC (minimum inhibitory concentration) (Japanese strain Mu3): < 4 µg/mL
- MIC ([4]; ATCC 29213 / MRSA / VISA, control strain S. aureus ATCC29213, read-out: MIC (standard Etest)): 1.5 µg/mL (≈ 1.04 µM)
- MIC ([4]; in vitro strain C1V8 derived from CMRSA-1, read-out: CLSI Etest MIC): 10 µg/mL (≈ 6.9 µM)
- MIC ([4]; in vitro strain C1V30 derived from CMRSA-1, read-out: CLSI Etest MIC): 16 µg/mL (≈ 11 µM)
- MIC ([4]; in vitro strain C2V4 derived from CMRSA-2, read-out: CLSI Etest MIC): 6 µg/mL (≈ 4.14 µM)
- MIC ([4]; in vitro strain C2V8 derived from CMRSA-2, read-out: CLSI Etest MIC): 9 µg/mL (≈ 6.21 µM)
- MIC ([4]; in vitro strain C2V24 derived from CMRSA-2, read-out: CLSI Etest MIC): 30 µg/mL (≈ 20.7 µM)
- MIC ([4]; in vitro strain C3V24 derived from CMRSA-3, read-out: CLSI Etest MIC): 20 µg/mL (≈ 13.8 µM)
- MIC ([4]; in vitro strain C4V8 derived from CMRSA-4, read-out: CLSI Etest MIC): 5 µg/mL (≈ 3.45 µM)
- MIC ([4]; read-out: CLSI Etest MIC, in vitro strain C1V4 derived from CMRSA-1): 5 µg/mL (≈ 3.45 µM)
- MIC ([4]; strain CMRSA-1 (MRSA), 0.5 McF inoculum, read-out: CLSI Etest MIC): 1.5 µg/mL (≈ 1.04 µM)
- MIC ([4]; strain CMRSA-2 (MRSA), 0.5 McF inoculum, read-out: CLSI Etest MIC): 1.5 µg/mL (≈ 1.04 µM)
- MIC ([4]; strain CMRSA-4 (MRSA), 0.5 McF inoculum, read-out: CLSI Etest MIC): 1 µg/mL (≈ 0.69 µM)
- CLSI Etest category ([4]; in vitro strain C1V4 derived from CMRSA-1): I
- CLSI Etest category ([4]; in vitro strain C1V8 derived from CMRSA-1): I
- CLSI Etest category ([4]; in vitro strain C1V30 derived from CMRSA-1): I
- CLSI Etest category ([4]; in vitro strain C2V4 derived from CMRSA-2): I
- CLSI Etest category ([4]; in vitro strain C2V8 derived from CMRSA-2): I
- CLSI Etest category ([4]; in vitro strain C2V24 derived from CMRSA-2): I
- CLSI Etest category ([4]; in vitro strain C3V4 derived from CMRSA-3): S
- CLSI Etest category ([4]; in vitro strain C3V8 derived from CMRSA-3): I
- CLSI Etest category ([4]; in vitro strain C3V24 derived from CMRSA-3): I
- CLSI Etest category ([4]; in vitro strain C4V8 derived from CMRSA-4): I
- CLSI Etest category ([4]; in vitro strain C4V20 derived from CMRSA-4): I
- CLSI Etest category ([4]; strain CMRSA-1 (MRSA), 0.5 McF inoculum): S
- CLSI Etest category ([4]; strain CMRSA-2 (MRSA), 0.5 McF inoculum): S
- CLSI Etest category ([4]; strain CMRSA-3 (MRSA), 0.5 McF inoculum): S
- CLSI Etest category ([4]; strain CMRSA-4 (MRSA), 0.5 McF inoculum): S
